Measured values from PMC3325965, “Structural Basis of the Chromodomain of Cbx3 Bound to Methylated Peptides from Histone H1 and G9a” (PLoS ONE, 2012).
Square brackets hold non-standard residues; d marks the D form. Peptide text beside a SMILES is read from it. Lys(Me3) = C[N+](C)(C)CCCC[C@H](N)C(=O)O; Lys(Me2) = CN(C)CCCC[C@H](N)C(=O)O; Lys(Me) = CNCCCC[C@H](N)C(=O)O

Molecular target: T1, human Cbx3 chromodomain (Homo sapiens, UniProt Q13185)
T1 construct: The chromodomain of Cbx3 (29–86) was subcloned into a pET-28a-MHL vector; His tag (TEV-cleavable, pET-28a-MHL) (N, cleaved yes); made in house
T1 sequence (Q13185 29-86): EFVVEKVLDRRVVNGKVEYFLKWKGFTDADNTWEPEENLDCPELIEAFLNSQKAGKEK
Assay: Isothermal titration calorimetry (ITC) of methylated peptides binding to Cbx3 chromodomain
Design: key to Kd peptide: N/B: No binding was detected
Conditions: Cbx3 chromodomain (residues 29–86), 60 µl of peptide solution (1–2 mM) injected into cell with 40–100 mM protein, 20 mM Tris–HCl, pH 7.5, 150 mM NaCl, one-site binding model
Text: Chromodomain has been identified to be a methyl-lysine binding motif involved in transcription regulation, [28]. Many chromodomain-containing proteins, such as HP1 proteins and Polycomb group proteins, were reported to recognize methylated histone tails, [13], [17], [29]. Besides methylated histone H3K9, Cbx3, also known as HP1γ, can also bind to methylated Lys26 of histone H1 and methylated Lys185 of G9a, [22], [23]. To elucidate the binding affinity of Cbx3 chromodomain to these two methylated sites, isothermal titration calorimetry (ITC) assay was performed using histone H1K26 and G9aK185 peptides bearing different lysine methylation states as substrates. […] (Table 1).
Isothermal titration calorimetry measurements were performed as reported previously. Experiments were carried out by injecting 60 µl of peptide solution (1–2 mM) into a sample cell containing […] protein of Cbx3 chromodomain in 20 mM Tris–HCl, pH 7.5, 150 mM NaCl. The ITC measurements were fit to a one-site binding model using Origin Software (MicroCal Inc.)

Compound: CNCCCC[C@H](NC(=O)[C@H](CCCNC(=N)N)NC(=O)[C@H](C)NC(=O)[C@H](CCCNC(=N)N)NC(=O)[C@H](Cc1c[nH]cn1)NC(=O)[C@@H](NC(=O)[C@@H](N)CCCCN)C(C)C)C(=O)N[C@H](C(=O)N[C@@H](CCSC)C(=O)N[C@@H](CO)C(=O)N[C@@H](CCCCN)C(=O)N1CCC[C@H]1C(=O)O)[C@@H](C)O [G9a(179–190) me1] (H-KVHRAR[Lys(Me)]TMSKP-OH)
- Kd: 28 µM

Compound: CSCC[C@H](NC(=O)[C@@H](NC(=O)[C@H](CCCCN(C)C)NC(=O)[C@H](CCCNC(=N)N)NC(=O)[C@H](C)NC(=O)[C@H](CCCNC(=N)N)NC(=O)[C@H](Cc1c[nH]cn1)NC(=O)[C@@H](NC(=O)[C@@H](N)CCCCN)C(C)C)[C@@H](C)O)C(=O)N[C@@H](CO)C(=O)N[C@@H](CCCCN)C(=O)N1CCC[C@H]1C(=O)O [G9a(179–190) me2] (H-KVHRAR[Lys(Me2)]TMSKP-OH)
- Kd: 9 µM

Compound: CSCC[C@H](NC(=O)[C@@H](NC(=O)[C@H](CCCC[N+](C)(C)C)NC(=O)[C@H](CCCNC(=N)N)NC(=O)[C@H](C)NC(=O)[C@H](CCCNC(=N)N)NC(=O)[C@H](Cc1c[nH]cn1)NC(=O)[C@@H](NC(=O)[C@@H](N)CCCCN)C(C)C)[C@@H](C)O)C(=O)N[C@@H](CO)C(=O)N[C@@H](CCCCN)C(=O)N1CCC[C@H]1C(=O)O [G9a(179–190) me3] (H-KVHRAR[Lys(Me3)]TMSKP-OH)
- Kd: 14 µM

Compound: KVHRARK^185TMSKP [G9a(179–190) unmodified, histone methyltransferase G9a peptide, residues 179–190, without modification]
- Kd peptide: N/B
- Kd peptide (listed as G9aK185): did not exhibit detectable binding

Compound: TPVKKKARK^26SAG [H1.4(18–29) me1, histone H1.4 peptide, residues 18–29, mono-methylated at Lys26]
- Kd peptide: N/B

Compound: TPVKKKARK^26SAG [H1.4(18–29) unmodified, histone H1.4 peptide, residues 18–29, without modification]
- Kd peptide: N/B ^*
- Kd peptide (listed as H1K26): did not exhibit detectable binding
